Test results taken from PubChem BioAssay (NCI).
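96-well plates; 48 h exposure; 5 concentrations. Endpoints by linear interpolation between flanking doses. Not reached: highest tested concentration assigned. GI50: concentration for 50% inhibition of growth. At the TGI there is no net growth.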

What was measured:
Assay in all cases: NCI tumour cell line growth inhibition, 48 h
[1] = test system: 786-0 renal
[2] = test system: A498 renal
[3] = test system: A549 NSCLC
[4] = test system: ACHN renal
[5] = test system: BT-549 breast
[6] = test system: CAKI-1 renal
[7] = test system: CCRF-CEM leukemia
[8] = test system: COLO 205 colon
[9] = test system: DU-145 prostate
[10] = test system: EKVX NSCLC
[11] = test system: HCC-2998 colon
[12] = test system: HCT-116 colon
[13] = test system: HCT-15 colon
[14] = test system: HL-60(TB) leukemia
[15] = test system: HOP-62 NSCLC
[16] = test system: HOP-92 NSCLC
[17] = test system: HS 578T breast
[18] = test system: HT29 colon
[19] = test system: IGROV1 ovarian
[20] = test system: K-562 leukemia
[21] = test system: KM12 colon
[22] = test system: LOX IMVI melanoma
[23] = test system: M14 melanoma
[24] = test system: MALME-3M melanoma
[25] = test system: MCF7 breast
[26] = test system: MDA-MB-231 breast
[27] = test system: MDA-MB-435
[28] = test system: MDA-MB-468 breast
[29] = test system: MOLT-4 leukemia
[30] = test system: NCI-H226 lung
[31] = test system: NCI-H23 lung
[32] = test system: NCI-H460 lung
[33] = test system: NCI-H522 lung
[34] = test system: NCI/ADR-RES ovarian
[35] = test system: OVCAR-3 ovarian
[36] = test system: OVCAR-4 ovarian
[37] = test system: OVCAR-5 ovarian
[38] = test system: OVCAR-8 ovarian
[39] = test system: PC-3 prostate
[40] = test system: RPMI-8226 leukemia
[41] = test system: RXF 393 renal
[42] = test system: SF-268 CNS
[43] = test system: SF-295 CNS
[44] = test system: SF-539 CNS
[45] = test system: SK-MEL-2 melanoma
[46] = test system: SK-MEL-28 melanoma
[47] = test system: SK-MEL-5 melanoma
[48] = test system: SK-OV-3 ovarian
[49] = test system: SN12C renal
[50] = test system: SNB-19 CNS
[51] = test system: SNB-75 CNS
[52] = test system: SR leukemia
[53] = test system: SW-620 colon
[54] = test system: T-47D breast
[55] = test system: TK-10 renal
[56] = test system: U251 CNS
[57] = test system: UACC-257 melanoma
[58] = test system: UACC-62 melanoma
[59] = test system: UO-31 renal

Q: What does the source list for `O=C(N=Nc1c(O)[nH]c2ccc(Cl)cc12)c1ccc2nc(-c3ccc(Cl)cc3)[nH]c2c1`?
A: GI50 [1]: 3.08 µM; TGI [1]: 21.2 µM; GI50 [2]: 18.4 µM; TGI [2]: 57 µM; GI50 [3]: 29 µM; TGI [3]: > 57.7 µM; GI50 [4]: 23.5 µM; TGI [4]: > 57.7 µM; GI50 [5]: 7.12 µM; TGI [5]: 25.8 µM; GI50 [6]: > 57.7 µM; TGI [6]: > 57.7 µM; GI50 [7]: 0.969 µM; TGI [7]: 4.39 µM; GI50 [8]: 2.27 µM; TGI [8]: 10.5 µM; GI50 [9]: 3.74 µM; TGI [9]: > 57.7 µM; GI50 [10]: 16.6 µM; TGI [10]: > 57.7 µM; GI50 [11]: 3.4 µM; TGI [11]: > 57.7 µM; GI50 [12]: 2.35 µM; TGI [12]: > 57.7 µM; GI50 [13]: > 57.7 µM; TGI [13]: > 57.7 µM; GI50 [14]: 10.1 µM; TGI [14]: > 57.7 µM; GI50 [15]: 6.93 µM; TGI [15]: 24 µM; GI50 [16]: 8.67 µM; TGI [16]: 39 µM; GI50 [17]: 2.67 µM; TGI [17]: 41.3 µM; GI50 [18]: 2.33 µM; TGI [18]: > 57.7 µM; GI50 [19]: 3.64 µM; TGI [19]: > 57.7 µM; GI50 [20]: 1.62 µM; TGI [20]: > 57.7 µM; GI50 [21]: > 57.7 µM; TGI [21]: > 57.7 µM; GI50 [22]: 1.07 µM; TGI [22]: 2.32 µM; GI50 [23]: 3.82 µM; TGI [23]: > 57.7 µM; GI50 [24]: 2.27 µM; TGI [24]: 10.9 µM; GI50 [25]: 1.39 µM; TGI [25]: > 57.7 µM; GI50 [26]: 1.51 µM; TGI [26]: 4.74 µM; GI50 [27]: 2.05 µM; TGI [27]: 13.3 µM; GI50 [28]: 1.4 µM; TGI [28]: 4.88 µM; GI50 [29]: 1.42 µM; TGI [29]: 16.5 µM; GI50 [30]: 13.7 µM; TGI [30]: > 57.7 µM; GI50 [31]: 2.22 µM; TGI [31]: 9.84 µM; GI50 [32]: 2.38 µM; TGI [32]: > 57.7 µM; GI50 [33]: 3.73 µM; TGI [33]: 27.2 µM; GI50 [34]: > 57.7 µM; TGI [34]: > 57.7 µM; GI50 [35]: 5.2 µM; TGI [35]: > 57.7 µM; GI50 [36]: 1.98 µM; TGI [36]: 18.8 µM; GI50 [37]: 3.5 µM; TGI [37]: > 57.7 µM; GI50 [38]: 4.42 µM; TGI [38]: > 57.7 µM; GI50 [39]: 7.5 µM; TGI [39]: > 57.7 µM; GI50 [40]: > 57.7 µM; TGI [40]: > 57.7 µM; GI50 [41]: 2.99 µM; TGI [41]: 19.4 µM; GI50 [42]: 1.78 µM; TGI [42]: 10.6 µM; GI50 [43]: 2.97 µM; TGI [43]: 20.2 µM; GI50 [44]: 2.11 µM; TGI [44]: 8.18 µM; GI50 [45]: 41.5 µM; TGI [45]: > 57.7 µM; GI50 [46]: 6.25 µM; TGI [46]: 49.7 µM; GI50 [47]: > 57.7 µM; TGI [47]: > 57.7 µM; GI50 [48]: 15.5 µM; TGI [48]: > 57.7 µM; GI50 [49]: 2.53 µM; TGI [49]: 33.2 µM; GI50 [50]: 2.05 µM; TGI [50]: 10.7 µM; GI50 [51]: 1.74 µM; TGI [51]: 14 µM; GI50 [52]: 3.29 µM; TGI [52]: > 57.7 µM; GI50 [53]: 1.91 µM; TGI [53]: > 57.7 µM; GI50 [54]: 2 µM; TGI [54]: 44.3 µM; GI50 [55]: 40.9 µM; TGI [55]: > 57.7 µM; GI50 [56]: 1.75 µM; TGI [56]: 6.46 µM; GI50 [57]: 40 µM; TGI [57]: > 57.7 µM; GI50 [58]: 4.64 µM; TGI [58]: 26.6 µM; GI50 [59]: > 57.7 µM; TGI [59]: > 57.7 µM
